Test results reported in the OligoGym collection.
After the bases stand the sugars from the 5' end (letter, count) and the backbone: PS all phosphorothioate, else s phosphorothioate and o phosphodiester by linkage. Methylation of C is not given here. e = 2'-O-(2-methoxyethyl) (MOE); k = constrained ethyl (cEt); d = 2'-deoxy (DNA); m = 2'-O-methyl

Target: HSD17B13
Conditions: ASO, HepaRG

Sequence | target mRNA inhibition (1 µM) | also measured
CGTTUTGGGCTAATGA (sugars k3 d1 m1 d8 k3, PS) | 34% | –
CTAAAATTGTCTAAAC (sugars k3 d1 m1 d8 k3, PS) | 13% | –
CTAAACTAGTGGTAAT (sugars k3 d10 k3, PS) | 23% | –
CTAAAGCAGGCTACTT (sugars k3 d10 k3, PS) | 32% | –
CTAACTAACCTGACAC (sugars k3 d10 k3, PS) | 23% | –
CTAAGTTAGCCCCCAG (sugars k3 d10 k3, PS) | 15% | –
CTAATGAATCATGATT (sugars k3 d10 k3, PS) | 20% | –
CTAATGTATGAGGTCT (sugars k3 d10 k3, PS) | 46% | –
CTAATTTAGTCAACTT (sugars k3 d10 k3, PS) | 40% | –
CTACACTAATATTGAG (sugars k3 d9 k3 e1, PS) | 10% | –
CTACACTAATATTGAG (sugars k3 d10 k3, PS) | 20% | –
CTACATGTAAGGTTTT (sugars k3 d10 k3, PS) | 11% | –
CTACCTCTAAGTTAGC (sugars k3 d10 k3, PS) | 6% | –
CTAGAATTAAGGGCTA (sugars k3 d10 k3, PS) | 42% | –
CTAGATTCTACACTAA (sugars k3 d10 k3, PS) | 17% | –
CTAGGGAAATCTTTCA (sugars k3 d9 k3 e1, PS) | 55% | –
CTAGTGCCAAACCAAT (sugars k3 d9 k3 e1, PS) | 61% | –
CTAGTGCCAAACCAAT (sugars k3 d10 k3, PS) | 49% | –
CTAGTTGCAATGAGAT (sugars k3 d10 k3, PS) | 65% | –
CTATAGTAATCACAAG (sugars k3 d9 k3 e1, PS) | 53% | –
CTATAGTAATCACAAG (sugars kkdddddddddkekek, PS) | 36% | –
CTATAGTAATTGCTAT (sugars k3 d10 k3, PS) | 0% | –
CTATCAGACTTCTTAC (sugars k3 d10 k3, PS) | 39% | –
CTATCATGCCTTCCCC (sugars k3 d10 k3, PS) | 1% | –
CTCAATAACTGAGTTA (sugars k3 d10 k3, PS) | 4% | –

Sequence | target mRNA inhibition (1 µM) | also measured
CTCATTATAAGCTAAC (sugars k3 d10 k3, PS) | 13% | –
CTCATTTATGTACCAA (sugars k3 d10 k3, PS) | 87% | target mRNA inhibition (0.02 µM): 0%; target mRNA inhibition (0.078 µM): 50%; target mRNA inhibition (0.313 µM): 75%; target mRNA inhibition (1.25 µM): 79%
CTCCAAATTCCCAACC (sugars k3 d10 k3, PS) | 31% | –
CTCCAAGGAGTGCATC (sugars k3 d10 k3, PS) | 53% | –
CTCCACACCGCGCTTA (sugars k3 d10 k3, PS) | 7% | –
CTCCAGTAATGAGAAC (sugars k3 d10 k3, PS) | 40% | –
CTCCCACAAAACTAAC (sugars k3 d10 k3, PS) | 13% | –
CTCCTTATTTGTTAGA (sugars k3 d10 k3, PS) | 26% | –
CTCGGGAAGTTTAGAC (sugars k3 d10 k3, PS) | 47% | –
CTCTAAGTTAGCCCCC (sugars k3 d10 k3, PS) | 38% | –
CTCTAGGAGATATAAC (sugars k3 d10 k3, PS) | 49% | –
CTCTATAATAAGGTAA (sugars k3 d10 k3, PS) | 0% | –
CTCTATTGGGCCAGGC (sugars k3 d10 k3, PS) | 46% | –
CTCTATTGGTGTTTTA (sugars k3 d10 k3, PS) | 32% | –
CTCTCTAAAGGGCTGC (sugars k3 d10 k3, PS) | 55% | –
CTCTGGGACCAAGGAT (sugars k3 d1 m1 d8 k3, PS) | 43% | –
CTCTGGGACCAAGGAT (sugars kkdddddddddkekek, PS) | 39% | –
CTCTTGGGTCCATTGT (sugars k3 d10 k3, PS) | 40% | –
CTGCAACTTTTAGTCA (sugars k3 d10 k3, PS) | 21% | –
CTGCTGCTAGTGCCAA (sugars k3 d10 k3, PS) | 57% | –
CTGGAACAATATGGGA (sugars k3 d10 k3, PS) | 38% | –
CTGGGATAGTGGAGGA (sugars k3 d10 k3, PS) | 21% | –
CTGGTTTCATAACCTA (sugars k3 d10 k3, PS) | 9% | –
CTGTAGGACTCTGCTC (sugars k3 d10 k3, PS) | 48% | –
CTGTCTCCAATACAGG (sugars k3 d10 k3, PS) | 29% | –

Sequence | target mRNA inhibition (1 µM) | also measured
CTGTGTTAGCTTTAAT (sugars k3 d1 m1 d8 k3, PS) | 41% | –
CTGTGTTAGCTTTAAT (sugars k3 d9 k3 e1, PS) | 50% | –
CTGTTGCAAGTTCTTC (sugars k3 d10 k3, PS) | 85% | target mRNA inhibition (0.02 µM): 0%; target mRNA inhibition (0.078 µM): 0%; target mRNA inhibition (0.313 µM): 49%; target mRNA inhibition (1.25 µM): 73%; target mRNA inhibition (5 µM): 88%
CTTAAACCTTCCCTGT (sugars k3 d10 k3, PS) | 22% | –
CTTAAACCTTCCCTGT (sugars kkdddddddddkekek, PS) | 36% | –
CTTACTAAGGAAATTC (sugars k3 d10 k3, PS) | 19% | –
CTTAGCTGTGCACTCA (sugars k3 d10 k3, PS) | 60% | –
CTTAGTTCATTGTGAT (sugars k3 d10 k3, PS) | 69% | –
CTTATGAAGTTAGTAT (sugars k3 d10 k3, PS) | 43% | –
CTTATGTAATAGCCAG (sugars k3 d10 k3, PS) | 74% | –
CTTATTAAGTACTGTG (sugars k3 d10 k3, PS) | 0% | –
CTTCACCTGATTTAGA (sugars k3 d10 k3, PS) | 7% | –
CTTCATAGTGGACTTC (sugars k3 d9 k3 e1, PS) | 57% | –
CTTCATAGTGGACTTC (sugars k3 d10 k3, PS) | 79% | target mRNA inhibition (0.02 µM): 3%; target mRNA inhibition (0.078 µM): 4%; target mRNA inhibition (0.313 µM): 28%; target mRNA inhibition (1.25 µM): 66%; target mRNA inhibition (5 µM): 93%
CTTCATCCTTGGTGCT (sugars k3 d10 k3, PS) | 30% | –
CTTGAACAGTCTTAAA (sugars k3 d1 m1 d8 k3, PS) | 49% | –
CTTGAATGAGTGGTCT (sugars k3 d10 k3, PS) | 64% | target mRNA inhibition (0.02 µM): 10%; target mRNA inhibition (0.078 µM): 16%; target mRNA inhibition (0.313 µM): 46%; target mRNA inhibition (1.25 µM): 69%; target mRNA inhibition (5 µM): 88%
CTTGATCTCTTAGCTG (sugars k3 d1 m1 d8 k3, PS) | 32% | –
CTTGATCTCTTAGCTG (sugars kkdddddddddkekek, PS) | 49% | –
CTTGATGATTCTGACT (sugars k3 d10 k3, PS) | 57% | –
CTTGATGTAGTGGGAG (sugars k3 d1 m1 d8 k3, PS) | 67% | –
CTTGATTAAGGCAAAG (sugars k3 d10 k3, PS) | 38% | –
CTTGCAGAAATTCACC (sugars k3 d10 k3, PS) | 40% | –
